Consider 4 molecules from ChEMBL document CHEMBL1201862, “PubChem BioAssay data set” (2004).

As usually defined, the EC50 is the midpoint of the concentration-response curve. As a reminder, the IC50 is the concentration needed to halve the response being measured. For orientation: CC50 means the concentration that lowers cell viability or growth by half. The term AC50 denotes the concentration giving half of the maximal activity seen.

The source made the active and inactive calls. Where only a bound is given, the exact number is not on record here.

One experiment addresses T1, Estrogen receptor (Homo sapiens, UniProt P03372).
T1 sequence (P03372 whole entry): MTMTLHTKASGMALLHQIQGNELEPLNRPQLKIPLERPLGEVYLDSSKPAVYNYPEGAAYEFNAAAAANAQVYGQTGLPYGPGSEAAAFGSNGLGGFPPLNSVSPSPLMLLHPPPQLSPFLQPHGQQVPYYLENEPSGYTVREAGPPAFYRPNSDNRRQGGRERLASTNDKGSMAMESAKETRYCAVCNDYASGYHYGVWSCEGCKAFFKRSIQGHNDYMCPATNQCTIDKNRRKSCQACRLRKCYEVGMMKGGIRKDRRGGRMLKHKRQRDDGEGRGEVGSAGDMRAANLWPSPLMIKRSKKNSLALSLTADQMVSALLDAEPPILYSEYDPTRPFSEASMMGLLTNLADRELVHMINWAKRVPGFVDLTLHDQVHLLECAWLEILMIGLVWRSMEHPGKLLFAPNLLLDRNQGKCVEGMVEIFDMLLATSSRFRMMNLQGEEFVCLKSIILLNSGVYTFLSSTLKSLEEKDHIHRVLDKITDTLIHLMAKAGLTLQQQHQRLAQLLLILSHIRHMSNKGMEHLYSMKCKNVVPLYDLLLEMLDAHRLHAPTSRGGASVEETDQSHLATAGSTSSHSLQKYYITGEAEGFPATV
The experiment in a line: potentiators of ERα–SRC-1 coactivator binding, dose response, biochemical, TR-FRET, ERα LBD (AID 737). (In general: Time-resolved FRET reads energy transfer from a long-lived donor to a nearby acceptor.)

The target in experiment [1] is Photoreceptor-specific nuclear receptor (Homo sapiens, UniProt Q9Y5X4). The experiment in a line: NR2E3 inverse agonists, dose response, biochemical, TR-FRET (AID 463256). It is filed as functional.
The target of experiment [2] is Peroxisome proliferator-activated receptor gamma/Nuclear receptor corepressor 2 (Homo sapiens, UniProt P37231+Q9Y618). In words: Counterscreen for NR2E3 inverse agonists: TR-FRET-based biochemical high throughput dose response assay to identify inverse agonists of the interaction between peroxisome proliferator-activated receptor gamma (PPARg) and nuclear receptor co-repressor 2 (NCOR2). Format: functional. On the technique in general: The purpose of a counterscreen is to sort out artefacts and off-target activity.

Experiment [3] has as its target T2, NADPH oxidase 1 (Homo sapiens, UniProt Q9Y5S8).
T2 sequence (Q9Y5S8 whole entry): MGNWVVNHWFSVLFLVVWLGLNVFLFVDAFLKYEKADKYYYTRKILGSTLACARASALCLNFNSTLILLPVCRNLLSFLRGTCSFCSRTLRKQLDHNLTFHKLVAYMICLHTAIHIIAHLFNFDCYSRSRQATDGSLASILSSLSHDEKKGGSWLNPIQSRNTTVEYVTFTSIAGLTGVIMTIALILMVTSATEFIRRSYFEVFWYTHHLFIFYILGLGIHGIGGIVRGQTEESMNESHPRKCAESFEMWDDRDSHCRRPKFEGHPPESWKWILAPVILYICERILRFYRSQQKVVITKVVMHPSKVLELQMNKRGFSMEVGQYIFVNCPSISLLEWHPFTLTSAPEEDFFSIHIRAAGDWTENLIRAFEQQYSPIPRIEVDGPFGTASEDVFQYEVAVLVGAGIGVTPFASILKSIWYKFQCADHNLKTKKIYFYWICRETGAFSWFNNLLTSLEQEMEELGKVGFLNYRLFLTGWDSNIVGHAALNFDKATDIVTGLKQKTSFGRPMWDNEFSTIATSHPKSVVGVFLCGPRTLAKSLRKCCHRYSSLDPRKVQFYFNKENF
The experiment in a line: Late-stage luminescence-based cell-based dose response assay to identify inhibitors of NADPH oxidase 1 (NOX1): Synthesized analogs. Format: functional.

Experiment [4] addresses T2, NADPH oxidase 1. In words: Luminescence-based cell-based dose response assay to identify inhibitors of NADPH oxidase 1 (NOX1). Format: functional.
Experiment [5] concerns the target T3, Heat shock factor protein 1 (Mus musculus, UniProt P38532).
T3 sequence (P38532 whole entry): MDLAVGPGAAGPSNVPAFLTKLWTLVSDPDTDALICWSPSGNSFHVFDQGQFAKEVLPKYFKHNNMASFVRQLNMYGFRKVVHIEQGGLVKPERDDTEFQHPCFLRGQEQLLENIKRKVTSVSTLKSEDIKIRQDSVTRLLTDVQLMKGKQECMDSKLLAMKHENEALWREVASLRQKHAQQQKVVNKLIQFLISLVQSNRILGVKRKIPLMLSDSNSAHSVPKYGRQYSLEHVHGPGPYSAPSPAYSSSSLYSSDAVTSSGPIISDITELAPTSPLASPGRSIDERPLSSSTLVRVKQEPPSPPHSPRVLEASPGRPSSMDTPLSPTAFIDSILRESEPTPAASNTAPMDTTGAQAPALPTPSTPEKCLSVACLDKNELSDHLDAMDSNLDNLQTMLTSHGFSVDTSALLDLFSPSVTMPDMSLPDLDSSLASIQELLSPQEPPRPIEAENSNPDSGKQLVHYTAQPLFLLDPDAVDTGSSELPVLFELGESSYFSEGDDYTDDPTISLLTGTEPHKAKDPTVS
In words: inhibition of MG132-induced HSE-luciferase signal, confirmation, cell-based, NIH3T3, luminescence, dose retest (AID 2382).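 Note: NIH3T3 fibroblasts with HSF1-driven luciferase reporter stressed by proteasome inhibitor MG132; luminescence from HSF1-driven luciferase expression after 8 hours of MG132 stress.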 It is filed as functional.

Experiment [6] has as its target T4, Short transient receptor potential channel 4 (Mus musculus, UniProt Q9QUQ5).
T4 sequence (Q9QUQ5 whole entry): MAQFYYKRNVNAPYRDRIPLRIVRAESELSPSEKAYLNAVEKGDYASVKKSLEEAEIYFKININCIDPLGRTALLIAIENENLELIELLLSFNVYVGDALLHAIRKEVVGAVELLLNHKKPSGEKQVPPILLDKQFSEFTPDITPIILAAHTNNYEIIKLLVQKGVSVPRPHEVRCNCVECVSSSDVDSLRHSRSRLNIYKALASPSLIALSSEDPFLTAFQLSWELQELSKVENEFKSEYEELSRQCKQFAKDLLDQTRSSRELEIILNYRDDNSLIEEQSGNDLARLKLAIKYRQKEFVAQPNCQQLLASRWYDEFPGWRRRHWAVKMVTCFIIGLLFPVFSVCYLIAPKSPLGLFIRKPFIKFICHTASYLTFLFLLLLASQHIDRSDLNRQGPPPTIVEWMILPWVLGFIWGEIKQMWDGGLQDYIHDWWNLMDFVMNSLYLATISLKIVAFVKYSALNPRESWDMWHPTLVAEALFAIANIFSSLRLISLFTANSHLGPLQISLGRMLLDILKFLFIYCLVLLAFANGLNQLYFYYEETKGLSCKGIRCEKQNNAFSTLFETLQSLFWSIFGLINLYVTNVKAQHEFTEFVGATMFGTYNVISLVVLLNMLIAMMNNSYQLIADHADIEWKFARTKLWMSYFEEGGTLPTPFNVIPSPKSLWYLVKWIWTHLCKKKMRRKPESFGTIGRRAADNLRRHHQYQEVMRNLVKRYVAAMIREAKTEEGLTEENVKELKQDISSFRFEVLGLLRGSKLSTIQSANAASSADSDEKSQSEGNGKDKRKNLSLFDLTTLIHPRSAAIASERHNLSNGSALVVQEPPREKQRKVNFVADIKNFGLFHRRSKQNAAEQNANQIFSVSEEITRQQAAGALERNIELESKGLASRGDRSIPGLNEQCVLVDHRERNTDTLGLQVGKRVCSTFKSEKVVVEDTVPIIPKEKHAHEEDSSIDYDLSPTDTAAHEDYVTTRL
The experiment in a line: mouse TRPC4 channel inhibitors, dose response, cell-based, HEK293 TRPC4/mu-opioid, Fluo-4 calcium (AID 434942).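 Note: potency of inhibitors blocking the TRPC4 calcium response.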 It is filed as functional.

The next experiment relates to HeLa. The experiment in a line: Cytotoxicity counterscreen assay for transcriptional activators of heat shock protein 70 (Hsp70). [Related pubchem assays: 1203, 1252 ]. Format: functional. The conditions noted are these: Homo sapiens.
The subject of another experiment is Jurkat. The experiment in a line: SAR Analysis of small molecule inhibitors of T-cell specific antigen receptor-induced NF-kB activation in a Jurkat cell line using a luminescence assay - Set 2. [Related pubchem assays (depositor defined):AID435003, AID435012, AID465]. Format: functional, cell-based. The conditions noted are these: Homo sapiens.
In experiment [7] the test system is HEK293. The experiment in a line: cytotoxicity in HEK293T NF-kB-Luc cells, SAR follow-up, cytotoxicity control for NF-kB activator project, cell-based, resazurin fluorescence (AID 493251). Format: functional. The conditions noted are these: Homo sapiens. For orientation: Resazurin is reduced to fluorescent resorufin, in cell work by metabolically active cells.

Experiment [8] addresses T5, Microphthalmia-associated transcription factor (Homo sapiens, UniProt O75030).
T5 sequence (O75030 whole entry): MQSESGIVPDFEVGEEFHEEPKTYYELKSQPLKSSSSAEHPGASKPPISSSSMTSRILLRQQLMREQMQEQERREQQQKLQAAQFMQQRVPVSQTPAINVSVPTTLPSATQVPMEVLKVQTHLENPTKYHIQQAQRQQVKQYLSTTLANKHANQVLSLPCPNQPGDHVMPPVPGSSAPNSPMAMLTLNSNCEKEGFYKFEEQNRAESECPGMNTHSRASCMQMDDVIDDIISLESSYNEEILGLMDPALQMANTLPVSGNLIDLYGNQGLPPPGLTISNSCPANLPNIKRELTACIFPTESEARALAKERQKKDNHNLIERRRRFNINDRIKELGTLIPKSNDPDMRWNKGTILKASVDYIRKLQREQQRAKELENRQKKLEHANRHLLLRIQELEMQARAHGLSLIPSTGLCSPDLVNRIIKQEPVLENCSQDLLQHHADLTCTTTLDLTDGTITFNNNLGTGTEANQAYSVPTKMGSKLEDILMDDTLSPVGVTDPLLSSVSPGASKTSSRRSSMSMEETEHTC
The experiment in a line: TRPM1 promoter luciferase signal decrease, dose response, MITF inhibitor project, cell-based, SK-MEL-5, cherry-picked, set 3 (AID 493073).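 Note: SK-MEL-5 melanoma cells with luciferase driven by the MITF target TRPM1 promoter.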 It is filed as functional.

Experiment [9] deals with HEK293. In words: SAR Analysis of small molecule inhibitors of T-cell specific antigen receptor-induced NF-kB activation in a HEK-293T cell line using a luminescence assay - Set 2. [Related pubchem assays (depositor defined):AID435003, AID435012, AID489026]. Format: functional, cell-based. To be noted: Homo sapiens.
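Throughout, for CC50: cells exposed to compound for 16 hours before readout.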

Sequence of Photoreceptor-specific nuclear receptor (Q9Y5X4 whole entry): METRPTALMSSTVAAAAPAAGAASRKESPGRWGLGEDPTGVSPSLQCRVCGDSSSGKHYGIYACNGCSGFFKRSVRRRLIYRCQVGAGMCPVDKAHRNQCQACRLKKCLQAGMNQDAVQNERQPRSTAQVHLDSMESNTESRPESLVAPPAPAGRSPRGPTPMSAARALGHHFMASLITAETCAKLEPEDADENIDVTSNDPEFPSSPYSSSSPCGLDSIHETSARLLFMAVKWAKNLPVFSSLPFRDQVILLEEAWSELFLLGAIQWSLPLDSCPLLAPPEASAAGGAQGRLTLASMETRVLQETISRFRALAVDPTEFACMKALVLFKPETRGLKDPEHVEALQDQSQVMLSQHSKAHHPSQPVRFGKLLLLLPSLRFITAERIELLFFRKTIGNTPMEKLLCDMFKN
Sequence of Peroxisome proliferator-activated receptor gamma/Nuclear receptor corepressor 2 (P37231 whole entry): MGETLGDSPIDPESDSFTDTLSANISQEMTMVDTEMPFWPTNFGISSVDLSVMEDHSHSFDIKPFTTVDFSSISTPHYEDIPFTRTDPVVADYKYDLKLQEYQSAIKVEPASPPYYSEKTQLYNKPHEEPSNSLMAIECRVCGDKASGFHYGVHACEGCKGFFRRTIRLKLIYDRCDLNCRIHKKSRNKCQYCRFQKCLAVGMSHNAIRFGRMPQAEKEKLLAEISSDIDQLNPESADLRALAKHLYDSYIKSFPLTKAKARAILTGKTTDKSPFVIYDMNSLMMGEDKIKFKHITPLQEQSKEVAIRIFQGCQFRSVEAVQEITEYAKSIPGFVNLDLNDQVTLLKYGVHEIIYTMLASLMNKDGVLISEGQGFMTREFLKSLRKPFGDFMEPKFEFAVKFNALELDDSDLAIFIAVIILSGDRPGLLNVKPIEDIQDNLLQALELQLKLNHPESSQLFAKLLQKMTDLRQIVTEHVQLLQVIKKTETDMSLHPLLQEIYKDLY
Sequence of Peroxisome proliferator-activated receptor gamma/Nuclear receptor corepressor 2 (Q9Y618 whole entry): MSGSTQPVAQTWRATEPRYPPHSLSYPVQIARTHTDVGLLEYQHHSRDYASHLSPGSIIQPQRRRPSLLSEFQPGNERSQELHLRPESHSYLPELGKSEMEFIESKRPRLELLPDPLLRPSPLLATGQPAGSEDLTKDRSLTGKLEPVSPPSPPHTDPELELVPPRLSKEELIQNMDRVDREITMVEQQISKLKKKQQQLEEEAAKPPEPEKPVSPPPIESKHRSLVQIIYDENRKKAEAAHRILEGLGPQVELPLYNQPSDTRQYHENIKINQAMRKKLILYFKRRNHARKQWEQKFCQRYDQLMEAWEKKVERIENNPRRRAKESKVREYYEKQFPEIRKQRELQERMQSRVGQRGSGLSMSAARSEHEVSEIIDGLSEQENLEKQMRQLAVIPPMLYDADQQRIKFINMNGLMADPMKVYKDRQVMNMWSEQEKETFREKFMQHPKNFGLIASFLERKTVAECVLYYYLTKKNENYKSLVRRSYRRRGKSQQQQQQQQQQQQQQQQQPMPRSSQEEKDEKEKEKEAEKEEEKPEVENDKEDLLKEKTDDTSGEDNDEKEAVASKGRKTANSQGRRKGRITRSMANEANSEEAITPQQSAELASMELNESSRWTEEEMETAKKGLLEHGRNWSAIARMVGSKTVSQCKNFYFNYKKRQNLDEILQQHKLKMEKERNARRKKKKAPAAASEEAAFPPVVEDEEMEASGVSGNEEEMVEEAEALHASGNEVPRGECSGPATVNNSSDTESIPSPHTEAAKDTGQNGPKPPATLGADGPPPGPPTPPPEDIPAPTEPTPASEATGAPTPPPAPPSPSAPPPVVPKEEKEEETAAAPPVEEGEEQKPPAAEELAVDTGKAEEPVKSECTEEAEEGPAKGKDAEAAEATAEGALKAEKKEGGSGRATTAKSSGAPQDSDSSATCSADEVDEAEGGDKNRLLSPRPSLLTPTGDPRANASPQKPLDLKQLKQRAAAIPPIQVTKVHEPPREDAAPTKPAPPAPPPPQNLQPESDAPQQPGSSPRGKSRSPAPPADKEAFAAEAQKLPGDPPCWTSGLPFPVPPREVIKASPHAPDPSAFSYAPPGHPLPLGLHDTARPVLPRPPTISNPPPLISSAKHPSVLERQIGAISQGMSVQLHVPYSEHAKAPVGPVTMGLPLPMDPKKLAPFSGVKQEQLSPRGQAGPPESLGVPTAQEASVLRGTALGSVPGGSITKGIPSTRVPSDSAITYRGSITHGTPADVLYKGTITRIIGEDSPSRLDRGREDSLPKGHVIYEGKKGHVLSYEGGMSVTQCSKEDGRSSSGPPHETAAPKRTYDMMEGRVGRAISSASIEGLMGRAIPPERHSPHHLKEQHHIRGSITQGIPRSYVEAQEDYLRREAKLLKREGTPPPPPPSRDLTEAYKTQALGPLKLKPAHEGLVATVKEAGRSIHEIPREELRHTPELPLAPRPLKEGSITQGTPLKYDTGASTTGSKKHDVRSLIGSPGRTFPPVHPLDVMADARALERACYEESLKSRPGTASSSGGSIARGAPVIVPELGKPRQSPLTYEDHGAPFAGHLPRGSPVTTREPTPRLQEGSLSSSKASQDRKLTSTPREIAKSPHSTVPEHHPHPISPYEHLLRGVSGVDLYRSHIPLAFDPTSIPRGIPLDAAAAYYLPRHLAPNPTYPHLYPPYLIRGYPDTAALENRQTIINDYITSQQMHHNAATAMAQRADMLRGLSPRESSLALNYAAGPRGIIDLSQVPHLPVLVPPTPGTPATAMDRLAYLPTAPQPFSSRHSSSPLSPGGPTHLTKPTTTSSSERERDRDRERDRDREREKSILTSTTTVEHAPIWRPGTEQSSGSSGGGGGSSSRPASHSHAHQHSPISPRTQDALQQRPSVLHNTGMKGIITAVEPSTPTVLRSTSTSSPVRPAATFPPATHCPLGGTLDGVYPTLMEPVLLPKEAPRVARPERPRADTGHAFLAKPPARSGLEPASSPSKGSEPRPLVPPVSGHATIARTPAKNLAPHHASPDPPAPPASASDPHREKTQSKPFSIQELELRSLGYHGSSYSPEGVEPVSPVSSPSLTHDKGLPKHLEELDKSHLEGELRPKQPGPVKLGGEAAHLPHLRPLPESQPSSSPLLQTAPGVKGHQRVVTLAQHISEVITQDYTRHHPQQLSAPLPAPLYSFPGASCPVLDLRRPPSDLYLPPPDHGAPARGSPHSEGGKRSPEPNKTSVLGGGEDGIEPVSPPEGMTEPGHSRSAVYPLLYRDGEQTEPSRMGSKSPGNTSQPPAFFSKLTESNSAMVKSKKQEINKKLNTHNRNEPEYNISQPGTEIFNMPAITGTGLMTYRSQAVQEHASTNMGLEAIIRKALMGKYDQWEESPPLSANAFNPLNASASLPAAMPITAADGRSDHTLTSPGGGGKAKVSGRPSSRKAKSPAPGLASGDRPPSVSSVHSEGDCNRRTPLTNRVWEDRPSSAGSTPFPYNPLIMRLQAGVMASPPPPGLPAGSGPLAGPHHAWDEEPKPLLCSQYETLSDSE

Consider `O=C(c1cc2sccc2n1Cc1ccccc1)N1CCc2ccccc21`, for which the EC50 at Estrogen receptor is 23.4 µM (active).

For `COc1ccc(N2CCN(CC(=O)Nc3ccccc3C(=O)NCc3ccccc3)CC2)cc1`, the IC50 is 3.67 µM (active) in experiment [1] and 3.53 µM (active) in [2].

For `CC(=O)c1ccc2c(c1)N(C)c1ccccc1S2`, the IC50 at NADPH oxidase 1 [3] was 2.36 µM (active); at NADPH oxidase 1 [4], 1 µM (active). For the same molecule, the 50% effective concentration (EC50) is > 195 µM (not active) in experiment [5] and 7.5 µM (active) in [6].

As for `O=C(Nc1ccc(N2CCCC2)c(Cl)c1)c1ccc([N+](=O)[O-])o1`, in the experiment with HeLa, the CC50 is 5.12 µM (active). In addition, the IC50 in the experiment on Jurkat is 17.8 µM (active); in the experiment on HEK293 [7] it was 42 µM (inactive); in the experiment with HEK293 [9], 33.9 µM (inactive). Further, in experiment [8], the AC50 is 11.1 µM (active).
